The test system of assay [1] is α-smooth muscle actin (aSMA) positive LL29 cells. Nature of the assay: Inhibition of the fibrotic process: αSMA staining in TGF-β1 treated LL29 fibroblasts from IPF patients. The note with it: Homo sapiens, Fibroblast; for EC50: 96 h; for inhibition at 10 µM: read-out: percentage in parentheses after EC50 >10.
Assay [2] deals with GSK3β kinase (Homo sapiens, UniProt P49841). The assay can be described thus: GSK3β kinase activity (Ser/Thr 09 peptide Z-lyte FRET assay). Format: biochemical. Conditions: recombinant kinase, 46 μM ATP, one hour at room temperature; read-out: EC50.
Sequence of GSK3β kinase (P49841 whole entry): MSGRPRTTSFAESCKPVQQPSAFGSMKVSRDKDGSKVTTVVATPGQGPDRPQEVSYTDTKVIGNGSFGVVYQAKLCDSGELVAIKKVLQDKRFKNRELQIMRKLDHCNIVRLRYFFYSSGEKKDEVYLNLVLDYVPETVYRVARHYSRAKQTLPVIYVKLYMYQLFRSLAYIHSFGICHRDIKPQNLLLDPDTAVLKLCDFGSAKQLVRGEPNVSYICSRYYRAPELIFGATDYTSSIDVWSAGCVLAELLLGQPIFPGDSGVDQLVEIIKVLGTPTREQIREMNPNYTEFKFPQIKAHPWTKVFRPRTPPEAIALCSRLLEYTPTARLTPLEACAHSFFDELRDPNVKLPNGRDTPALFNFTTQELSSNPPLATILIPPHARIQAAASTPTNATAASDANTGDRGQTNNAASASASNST
In assay [3] the test system is IL-6. The assay can be described thus: IL-6 inhibition in LPS-stimulated human peripheral blood mononuclear cells (HTRF). The note with it: Homo sapiens, PBMC; for EC50: 22 h; for inhibition at 10 µM: read-out: percentage in parentheses after EC50 >10. For orientation: Time-resolved FRET reads energy transfer from a long-lived donor to a nearby acceptor.
Method: Each compound was dissolved in DMSO (Catalog # D8418-100 ml, Sigma-Aldrich, St. Louis, Mo.) as a 10 mM stock and used to prepare compound source plates. […] After 22 hour incubation, a mixture of anti-IL6 XL665 and anti-IL-6 Cryptate diluted in reconstitution buffer (Catalog #62IL6PEC, Cisbio Inc., Bedford, Mass.) was added to each well. […] All samples were processed in duplicate. […] EC50 was determined using software generated by Dotmatics Limited (Windhill Bishops Stortford Herts, UK) using the Levenberg-Marquardt 4 parameter fitting procedure with finite different gradients.
Assay [4] deals with Tau phosphorylation at Ser396 (pSer396). Nature of the assay: Tau phosphorylation at Ser396 (pSer396) in SH-SY5Y cells, ELISA / western blot.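 Note: decrease in pSer396 Tau measured in lysates of treated cells by colorimetric ELISA or chemiluminescent western blot, same pSer396 antibody for both.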 Type of assay: cell-based, human. The note with it: Homo sapiens; SH-SY5Y cells, overnight (16-18 h); read-out: pSer396 Tau EC50. For orientation: An ELISA detects its analyte on a solid surface through an enzyme-linked reagent.
Method: Two days before treatment, cells were seeded onto 96 well plates at 5×10^4 cells/well.
The above synthesized compounds were screened using the cell assay procedure to assess decrease Tau phosphorylation at Ser396 (pSer396) described below.
Cells were lysed with RIPA buffer complemented with phosphatase and protease inhibitors then lysates were spun down at 12,000 g for 10 min to remove any cellular debris.
The target of assay [5] is DYRK1A kinase (Homo sapiens, UniProt Q13627). The assay can be described thus: DYRK1A kinase activity (Ser/Thr 18 peptide Z-lyte FRET assay).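 Note: kinase activity read as coumarin/fluorescein emission ratio after development step, with unphosphorylated and phosphorylated peptide forms setting 0% and 100% controls, values from dose-response curves.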 The note with it: recombinant DYRK1A, 30 μM ATP, one hour at room temperature. Format: biochemical.
Assay [6] concerns SW480 colon carcinoma cells. Nature of the assay: Cell viability assay (CellTiter-Glo). The note with it: Homo sapiens; for EC50: SW480, 96 h; for inhibition at 10 µM: SW480, read-out: percent inhibition at 10 μM. (In ATP-based viability assays light output follows the ATP content of the culture.)
The test system of assay [7] is secreted cytokines TNFα, IL-6 and KC-GRO. Nature of the assay: Secreted cytokines in Lipopolysaccharide-stimulated BV-2 cells (Table 9 does not say which cytokine). Type of assay: cell-based, mouse. The note with it: Mus musculus, BV-2, 5 h; read-out: EC50.
The test system of assay [8] is Wnt-responsive Sp5-Luc reporter in SW480 colon carcinoma cells. Nature of the assay: Screening assay for Wnt activity (Sp5-Luc reporter gene assay). Conditions: Homo sapiens; for EC50: SW480; for inhibition at 10 µM: SW480, read-out: percent inhibition at 10 μM.

The term EC50 denotes the midpoint of the concentration-response curve.

Regarding `Cn1cc(-c2ccc3cnc(NC(=O)CCc4ccccc4)nc3c2)cn1` [Compound 1101, N-(7-(1-Methyl-1H-pyrazol-4-yl)quinazolin-2-yl)-3-phenylpropanamide], the EC50 in assay [1] was over 10000 nM; in assay [2] it was 55 nM; in assay [3], over 10000 nM; in assay [4], 9500 nM; in assay [5], 20 nM; in assay [6], 4480 nM. Besides, the half-maximal effective concentration (EC50) was determined as 3100 nM in assay [7] and 2280 nM in assay [8]. For the same compound, the inhibition at 10 µM in assay [1] is 12.7%; in assay [3], 10.6%.

As to `CN(CC(=O)Nc1ncc2ccc(-c3cnn(C)c3)cc2n1)C1CCC1` [Compound 963, 2-(Cyclobutyl(methyl)amino)-N-(7-(1-methyl-1H-pyrazol-4-yl)quinazolin-2-yl)acetamide], the EC50 in assay [1] is 1570 nM; in assay [2] it was 45 nM; in assay [3] it was over 10000 nM; in assay [4], 1620 nM; in assay [5], 45 nM; in assay [6] it was over 10000 nM. For the same compound, the concentration for a half-maximal effect (EC50) was 354 nM in assay [7] and over 10000 nM in assay [8]. For the same compound, the values for the inhibition at 10 µM in assay [3], in assay [6] and in assay [8] were 5.4%, 27.9% and 11.8%, respectively.

As for `CN1CCC(C(=O)Nc2cc3cc(-c4cnsc4)ncc3cn2)CC1` [Compound 4319, N-(6-(Isothiazol-4-yl)-2,7-naphthyridin-3-yl)-1-methylpiperidine-4-carboxamide], the EC50 is 1630 nM in assay [1]; 199 nM in assay [2]; over 10000 nM in assay [3]; 553 nM in assay [4]; 39 nM in assay [5]; over 10000 nM in assay [6]. The 50% effective concentration (EC50) amounted to 516 nM in assay [7] and 1520 nM in assay [8]. The values for the inhibition at 10 µM in assay [3] and in assay [6] were 11.4% and 43%, respectively.

Regarding `O=C(Nc1ncc2ccc(-c3cncs3)cc2n1)[C@H]1CC[C@H](CO)CC1` [Compound 4586, trans-4-(hydroxymethyl)-N-(7-(thiazol-5-yl)quinazolin-2-yl)cyclohexane-1-carboxamide], the concentration giving a half-maximal response (EC50) is 4440 nM in assay [1]; 336 nM in assay [2]; over 10000 nM in assay [3]; 8800 nM in assay [4]; 2 nM in assay [5]; over 10000 nM in assay [6]. The results for the EC50 in assay [7] and in assay [8] were 380 nM and over 10000 nM, respectively. Further, the inhibition at 10 µM in assay [3] is 4.8%; in assay [6] it was 25.1%; in assay [8] it was 29.6%.

Turning to `Cn1cc(-c2cc3cc(NC(=O)[C@H]4CCCN4)ncc3cn2)cn1` [Compound 3689, (R)—N-(6-(1-Methyl-1H-pyrazol-4-yl)-2,7-naphthyridin-3-yl)pyrrolidine-2-carboxamide], the concentration giving a half-maximal response (EC50) in assay [1] was 893 nM; in assay [2], 8 nM; in assay [3], over 10000 nM; in assay [4], 156 nM; in assay [5], 71 nM; in assay [6], over 10000 nM. The EC50 in assay [7] was over 10000 nM; in assay [8] it was 370 nM. Further, the inhibition at 10 µM in assay [3] was found to be 7.6%; in assay [6] it was 28.8%.

As to `C[C@H]1CCCN1CC(=O)Nc1cc2cc(-c3cnn(C)c3)ncc2cn1` [Compound 3674, (S)—N-(6-(1-Methyl-1H-pyrazol-4-yl)-2,7-naphthyridin-3-yl)-2-(2-methylpyrrolidin-1-yl)acetamide], the EC50 is 604 nM in assay [1]; 21 nM in assay [2]; over 10000 nM in assay [3]; 192 nM in assay [4]; 7 nM in assay [5]; 6900 nM in assay [6]. In addition, the results for the EC50 in assay [7] and in assay [8] were 6800 nM and 512 nM, respectively. Also, the inhibition at 10 µM in assay [3] was 1.7%.

Turning to `CC(C)Oc1ccc(C(=O)Nc2cc3nc(-c4cnc5n4CCNC5)ccc3cn2)cc1` [Compound 523, 4-Isopropoxy-N-(2-(5,6,7,8-tetrahydroimidazo[1,2-a]pyrazin-3-yl)-1,6-naphthyridin-7-yl)benzamide], the concentration for a half-maximal effect (EC50) in assay [1] is 1630 nM; in assay [2] it was 362 nM; in assay [3], over 10000 nM; in assay [4], 3940 nM; in assay [5], 4 nM; in assay [6], 814 nM. Further, the concentration for a half-maximal effect (EC50) stood at 799 nM in assay [7] and 530 nM in assay [8]. Moreover, in assay [3], the inhibition at 10 µM is 3.7%.

With `CC(C)CN1CCC(CC(=O)Nc2cc3nc(-c4cnn(C)c4)ccc3cn2)C1` (stereo not shown) [Compound 122, 2-(1-Isobutylpyrrolidin-3-yl)-N-(2-(1-methyl-1H-pyrazol-4-yl)-1,6-naphthyridin-7-yl)acetamide], the EC50 in assay [1] worked out at 4020 nM; in assay [2] it was 70 nM; in assay [3], 3170 nM; in assay [4], 481 nM; in assay [5], 16 nM; in assay [6] it was 3110 nM. Besides, the results for the EC50 in assay [7] and in assay [8] were 590 nM and 2540 nM, respectively.

On to `CN(C)[C@H]1CC[C@H](C(=O)Nc2cc3cc(-c4cncs4)cnc3cn2)CC1` [Compound 4618], for which the concentration giving a half-maximal response (EC50) is 4810 nM in assay [1]; 3820 nM in assay [2]; over 10000 nM in assay [3]; 1050 nM in assay [4]; 18 nM in assay [5]; over 10000 nM in assay [6]. Also, the results for the EC50 in assay [7] and in assay [8] were 108 nM and over 10000 nM, respectively. In addition, the inhibition at 10 µM was 6.3% in assay [3], 36.1% in assay [6] and 14.6% in assay [8].

For the compound `CC(C(=O)Nc1cc2cc(-c3cncn3C)ncc2cn1)N1CCCC1` (stereo not shown) [Compound 4041, N-(6-(1-Methyl-1H-imidazol-5-yl)-2,7-naphthyridin-3-yl)-2-(pyrrolidin-1-yl) propanamide], the 50% effective concentration (EC50) is 3490 nM in assay [1]; 19 nM in assay [2]; over 10000 nM in assay [3]; 102 nM in assay [4]; 630 nM in assay [5]; 4540 nM in assay [6]. Further, the concentration for a half-maximal effect (EC50) in assay [7] stood at 3900 nM; in assay [8], 291 nM. Besides, the inhibition at 10 µM in assay [3] turned out to be 0%.

As to `Cn1cc(-c2ccc3cnc(NC(=O)[C@H]4CCCN4)cc3n2)cn1` [Compound 62, (R)—N-(2-(1-Methyl-1H-pyrazol-4-yl)-1,6-naphthyridin-7-yl)pyrrolidine-2-carboxamide], the EC50 in assay [1] was over 10000 nM; in assay [2], 9 nM; in assay [3], 4830 nM; in assay [4] it was 699 nM; in assay [5], 56 nM; in assay [6], over 10000 nM. For the same compound, the EC50 is 557 nM in assay [7] and over 10000 nM in assay [8]. For the same compound, the values for the inhibition at 10 µM in assay [1], in assay [6] and in assay [8] were 8.3%, 38.3% and 43.1%, respectively.

For the compound `Cn1ncc(-c2cc3cc(NC(=O)C4CC5(C4)CN(CCF)C5)ncc3cn2)c1CN1CCCCC1` [Compound 3907, 2-(2-Fluoroethyl)-N-(6-(1-methyl-5-(piperidin-1-ylmethyl)-1H-pyrazol-4-yl)-2,7-naphthyridin-3-yl)-2-azaspiro[3.3]heptane-6-carboxamide], the EC50 is 1820 nM in assay [1]; 39 nM in assay [2]; 8810 nM in assay [3]; 367 nM in assay [4]; 48 nM in assay [5]; 1300 nM in assay [6]. The results for the EC50 in assay [7] and in assay [8] were 4700 nM and 361 nM, respectively.

As to `Cn1cc(-c2ccc3cnc(NC(=O)C4CCN(Cc5ncco5)CC4)nc3c2)cn1` [Compound 1003, N-(7-(1-Methyl-1H-pyrazol-4-yl)quinazolin-2-yl)-1-(oxazol-2-ylmethyl) piperidine-4-carboxamide], the EC50 in assay [1] was over 10000 nM; in assay [2], 262 nM; in assay [3], over 10000 nM; in assay [4], 4500 nM; in assay [5], 25 nM; in assay [6], over 10000 nM. In addition, the 50% effective concentration (EC50) is 1490 nM in assay [7] and over 10000 nM in assay [8]. Also, the inhibition at 10 µM is 4.8% in assay [1], 6.6% in assay [3], 18.5% in assay [6] and 19.3% in assay [8].

`Cc1ncc(-c2ccc3cnc(NC(=O)C(C)N4CCCC4)cc3n2)n1C` (stereo not shown) [Compound 4544, N-(2-(1,2-Dimethyl-1H-imidazol-5-yl)-1,6-naphthyridin-7-yl)-2-(pyrrolidin-1-yl)propanamide]: the EC50 in assay [1] was found to be 1090 nM; in assay [2], 18 nM; in assay [3], 7770 nM; in assay [4] it was 76 nM; in assay [5], 33 nM; in assay [6], 5610 nM. The EC50 in assay [7] was found to be 353 nM; in assay [8], 59 nM.

Regarding `Cn1cc(-c2ccc3cnc(NC(=O)CCc4ccccc4)cc3n2)cn1` [Compound 194, N-(2-(1-Methyl-1H-pyrazol-4-yl)-1,6-naphthyridin-7-yl)-3-phenylpropanamide], the concentration giving a half-maximal response (EC50) is 935 nM in assay [1]; 17 nM in assay [2]; 8940 nM in assay [3]; 3000 nM in assay [4]; 23 nM in assay [5]; 7620 nM in assay [6]. Besides, the EC50 in assay [7] is 819 nM; in assay [8], 596 nM.

These data come from patent publication US10703748B2, “Diazanaphthalen-3-yl carboxamides and preparation and use thereof” (Samumed, LLC, priority 2017, dated 2020).
